# Measurements from US6844333B1, “Method of treating atherosclerosis” (The Trustees of the University of Pennsylvania, priority 1999, dated 2005).
# Columns and labels:
# [1] = system: human monocytes; assay: Inhibition of human monocyte/macrophage Fcγ receptor mediated phagocytosis; assay type: cell-based; details: 90 min at 37° C.; for % Phagocytic Cells (percent of monocytes/macrophages phagocytosing IgG sensitized cells): buffer control 42%; for PI (phagocytic index, ingested IgG-sensitized cells per 100 monocytes): buffer control 105
# Procedure: The agents to be tested (haloperidol, SCH-23390 and sulpiride) were incubated with human monocytes isolated using lymphocyte separation medium. Incubation was for 90 min at 37° C. Buffer (PBS) treated cells served as a control. At the end of the incubation period, monocytes were exposed to IgG-sensitized cells in accordance with the phagocytic assay of Indik et al, Blood 86:4389 (1995).
# [2] = Quantitative serum lipid analysis (cholesterol, triglyceride) in cholesterol-fed rabbits; assay type: in vivo, Male New Zealand White rabbits; details: change relative to control group; estriol 1 mg/kg; haloperidol 1/10/5 mg/kg s.c. daily
# Description: (§1) Serum lipid levels and I/M were expressed as the mean+SEM for all animals. The changes in lipid levels before and after the treatment period were compared using paired t-tests. The differences between the treatment groups and controls were compared using analysis of variance (ANOVA) techniques. Repeated Measures ANOVA was used to compare the difference in plaque loads among the five groups. Multiple regression models were used to compare the differences in plaque loads between the four treatment groups and the control group, adjusting for the difference in cholesterol and triglyceride levels. P<0.05 was considered statistically significant.
# [3] = system: aortic atherosclerotic plaque in hypercholesterolemic rabbits; assay: Histomorphometric analysis of aortic plaque load (I/M); assay type: in vivo, Male New Zealand White rabbits; details: for aortic plaque load vs controls after controlling for changes in serum C and T levels (multiple regression): estriol 1 mg/kg (P=0.052), haloperidol 1/10/5 mg/kg (P=0.069); for (I/M)/(I/M)CG: relative to control group, estriol 1 mg/kg, haloperidol 1/10/5 mg/kg s.c. daily
# Procedure: Five-micron, serial histologic sections (15 each) of 27 ascending aortas were cut from paraffin blocks, stained with hematoxylin and eosin (H&E) and were studied by light microscopy. Images of tissue sections were captured to a Power Macintosh 7300/200 computer by a Hitachi 3-CCD Color Camera (model HV-C20) attached to a Nikon Eclipse E600 microscope. With digital imaging (IPLap Spectrum, Signal Analytics Corporation, Vienna, Va.), they were then analyzed by manual color segmentation by tracting the endothelial surface (intima), internal elastic lamina, and external elastic lamina of each vessel. From segmented images, intimal and medial areas were computed, allowing calculation of intima to media ratios. Plaque load for each aorta was defined as the ratio of intimal area to medial area (I/M).
# as §1
# [4] = system: aortic atherosclerosis in hypercholesterolemic rabbits; assay: Gross examination of the aortas (occlusion); assay type: in vivo, Male New Zealand White rabbits; details: treated animals vs control
# Description: With the control animals, there was about 42% occlusion. With the low dose progesterone there was 6% occlusion and with the high dose progesterone there was 0% occlusion evident.
# [5] = Tolerability / survival during 12-week treatment; details: E: after 18 days; H: at 39 and 71 days, failure to thrive; n=6 per group
# Procedure: (§2) Male New Zealand White rabbits (3.2-4.9 pounds each) were fed a 0.5% cholesterol chow diet for 12 weeks and randomly assigned to five groups (n=6 each); one control group (CG) and four groups treated with estriol (E), haloperidol (H), low-dose 17-hydroxyprogesterone (LDP), or high-dose 17-hydroxyprogesterone (HDP). Serum cholesterol (C) and triglyceride (T) were measured before and after the treatment period in all groups; serum progesterone was determined only in the LDP and HDP groups. After the treatment period, rabbits were euthanized for histomorphometric analysis of aortic plaque load. The rabbits were treated according to the Animal Welfare Act specifications.
# (§3) Vehicle only (CG) and vehicle plus steroid (treated groups) were administered daily subcutaneously. Steroid doses were as follows: estriol, 1 mg/kg; haloperidol, 1 mg/kg for 2 weeks, 10 mg/kg for 2 weeks, and 5 mg/kg for 8 weeks; low-dose 17-hydroxyprogesterone, 10 mg/kg; high-dose 17-hydroxyprogesterone, 90 mg/kg.
# (§4) After 91-100 days of treatment, twenty-seven rabbits were euthanized for histomorphometric analysis of aortic plaque load.
# [6] = rabbit, in vivo
# Procedure: as §2, §3, §4
Structure (SMILES),% Phagocytic Cells (percent of monocytes/macrophages phagocytosing IgG sensitized cells) ([1]; 500 μg/ml PBS/methanol) [%],"PI (phagocytic index, ingested IgG-sensitized cells per 100 monocytes) ([1]; 500 μg/ml PBS/methanol)",Cholesterol Δ/ΔCG [2],Triglyceride Δ/ΔCG [2],aortic plaque load vs controls after controlling for changes in serum C and T levels (multiple regression) [3],(I/M)/(I/M)CG [3],atherosclerosis on gross examination of the aortas (in words) [4],rabbits that died or were sacrificed during treatment [5],% Phagocytic Cells (percent of monocytes/macrophages phagocytosing IgG sensitized cells) ([1]; 50 μM PBS/methanol) [%],"PI (phagocytic index, ingested IgG-sensitized cells per 100 monocytes) ([1]; 50 μM PBS/methanol)",tolerance of dose by rabbits [6]
"CCN1CCCC1CNC(=O)c1cc(S(N)(=O)=O)ccc1OC (stereo not drawn) [Sulpiride, sulpiride]",59,232,,,,,,,,,
"C[C@]12CC[C@@H]3c4ccc(O)cc4CC[C@H]3[C@@H]1C[C@@H](O)[C@@H]2O [E, estriol]",,,0.71,−0.03,lower,0.02,decreased atherosclerosis,One rabbit in the E group died,,,
"O=C(CCCN1CCC(O)(c2ccc(Cl)cc2)CC1)c1ccc(F)cc1 [Haloperidol, haloperidol]",,,0.86,0.81,lower,0.29,,two rabbits in he H group were sacrificed,0,0,poor tolerance
CN1CCc2cc(Cl)c(O)cc2[C@@H](c2ccccc2)C1 [SCH-23390],,,,,,,,,16,38,
